Data reported in patent publication EP0048614B1, “1-N-acylated and 1-N-alkylated derivatives of 4-0-substituted -2-deoxystreptamine aminoglycosides” (ELI LILLY AND COMPANY, priority 1980, dated 1982).
Read-outs that look alike come from different tables or passages of the source.

Assays:
B. subtilis X12 = test: Bioautography of thin layer chromatography plate; format: cell-based; settings: TLC plate of the reaction mixture against B. subtilis X12
Experimental: Apramycin (54 mg, 0.1 mmol) was dissolved in water (1 ml). Zinc acetate dihydrate (100 mg, 0.4 mmol) was added to this solution and the mixture was briefly sonicated to disperse crystals of zinc acetate. The ' mixture was diluted with dimethylformamide (5 ml), 1-iodo-n-butane (0.115 ml), 1 mmol) was added and this reaction mixture was stirred at room temperature for 4 days.

[1] = system: Staphylococcus aureus 3055; test: Subcutaneous therapy of experimental bacterial infection in mice (ED50); format: in vivo; settings: Staphylococcus aureus, 3055, sc
Experimental: Table II illustrates the effective dose (ED50, the effective dose to protect 50 percent of the test animals) for representative compounds of this invention against an experimental bacterial infection in mice.
The ED50 values were determined as described by W. E. Wick et al., Journal of Bacteriology, 81 [No. 2], 233-235 (1961).

Row | SMILES | zone of inhibition (bioautography) (B. subtilis X12) | further results
1 | CCCCNC1CC(N)C(OC2OC3C(CC2N)OC(OC2OC(CO)C(N)C(O)C2O)C(NC)C3O)C(O)C1O (centres unmarked) [1-N-(n-butyl)apramycin] | good zone of inhibition | –
2 | NCC[C@H](O)C(=O)N[C@@H]1C[C@H](N)[C@@H](O[C@H]2O[C@H](CN)[C@@H](O)C[C@H]2N)[C@H](O)[C@H]1O | – | ED50 ([1]; mg/kg × 2 subcutaneous doses at 1 and 5 hours post infection, mice challenged with 1,794 LD50's, read-out: Effective Dose (ED50)): 8.75 mg/kg
3 | CNC1C(OC2OC(CO)C(N)C(O)C2O)OC2CC(N)C(OC3C(N)CC(NC(=O)C(O)CCN)C(O)C3O)OC2C1O (centres unmarked) | – | ED50 ([1]; read-out: Effective Dose (ED50), mg/kg × 2 subcutaneous doses at 1 and 5 hours post infection, mice challenged with 331 LD50's): 7.1 mg/kg
4 | CCCCNC1CC(N)C(O)C(O)C1OC1OC2C(CC1N)OC(OC1OC(CO)C(N)C(O)C1O)C(NC)C2O (centres unmarked) [3-N-(n-butyl)apramycin] | not | –
5 | C=CCNC1CC(N)C(OC2OC3C(CC2N)OC(OC2OC(CO)C(N)C(O)C2O)C(NC)C3O)C(O)C1O (centres unmarked) [1-N-allylapramycin] | good zone of inhibition | –
